From US20220226270A1, “VERY-LONG-CHAIN POLYUNSATURATED FATTY ACIDS, ELOVANOID HYDROXYLATED DERIVATIVES, AND METHODS OF USE” (Board of Supervisors of Louisiana State University and …, priority 2019, published 2022)

Assays:
[1] = test system: cerebral cortical mixed neuronal cells; assay: Oxygen glucose deprivation (OGD) in cerebral cortical mixed neuronal cultures; type: cell-based, rat; conditions: for neuroprotection after OGD by VLC-PUFA precursor: 250 nM, added after OGD exposure; for neuroprotection compared to OGD alone (Hoechst-positive nuclei, calcein-positive cell counting or MTT): 90 mins OGD, added after 2 h of reoxygenation at 200 nM, 500 nM or 1 μM, cortical mixed or hippocampal neurons; for frequency distribution of pyknotic vs non-pyknotic nuclei (nuclear size peak) after OGD: 500 nM, DIV 12, 90 min OGD, Hoechst
Source text: (§1) Primary cultures of cortical neurons: Primary cultures of cortical and hippocampal neurons were harvested from 18-day-old embryos (E18) taken from timed-pregnant, two-month-old Sprague-Dawley (SD) rats (Charles River Lab., Wilmington, Mass.). Briefly, timed-pregnant SD rats were euthanized and embryos were collected in sterile conditions. Embryonic brains were dissected out by forceps on ice and placed in a petri dish containing ice-cold Hank's Balanced Salt Solution (HBSS) (GIBCO). Meninges were removed under a dissecting microscope and cortical tissues were chopped into small pieces with micro-spring scissors. These tissues were transferred to 15 ml tubes containing trypsin-EDTA (0.025% in HBSS) and DNase I. The tubes were incubated in 37° C. chamber for 15 mins and were agitated every 5 mins. After stopping the trypsinization with 5 ml 10% FBS, these tissues were triturated 15 times with a fire polished Pasteur pipet. Cell clumps were left to settle for 2 mins and the supernatant was transferred to a 15 ml Eppendorf tube. The supernatant was filtered through a 70 μm pore-sized filter (Corning cell strainer) and centrifuged for 5 mins at 1000 rpm. The cells were then resuspended in Neurobasal medium (GIBCO) containing 2% B27 (GIBCO) and 2% N2 (GIBCO) supplements, along with 0.5 mM glutamine, 50 U/ml penicillin/streptomycin.
(§2) Cells were counted using a Neubauer hemocytometer. 1×10^6 cells were seeded on poly-D-lysine-coated 12 well cell culture dish (CORNING) and cultured in incubator (37° C., 5% CO2). Culture medium was first replaced after 24 h, then half of the medium was replaced with fresh medium every three days. As a result, approximately, 90% purity of neurons was obtained as determined by class-III-β tubulin, GFAP and Hoechst 33258 staining. Cells were maintained in culture for about 2 weeks until they were exposed to uncompensated oxidative stress, OGD, or NMDA excitotoxicity.
Oxygen glucose deprivation (OGD), NMDA excitotoxicity or uncompensated oxidative stress (UOS) exposure: An in vitro oxygen glucose deprivation (OGD) model was established. Primary cortical neurons were cultured from SD rat embryos. On day in vitro (DIV) 12, cells were washed with phosphate-buffered saline and incubated in glucose-free Neurobasal medium (GIBCO) for 30 mins. The cells were then placed in a modular incubator chamber and incubated in an anaerobic chamber (95% N2, 5% CO2) at 37° C. for 90 mins for OGD.
(§3) After 90 mins of OGD exposure, cells were returned to the original medium (Neurobasal medium (GIBCO) containing 2% B27 (GIBCO) and 2% N2 (GIBCO) supplements, along with 0.5 mM glutamine, 50 U/ml penicillin/streptomycin) and placed in a normoxic chamber (37° C., 5% CO2) for 2 h. Then the medium was changed with medium containing either ELV-N32 or ELV-N34 [500 nM] and maintained in a normoxic chamber (37° C., 5% CO2) for 12 h, after which cells were sampled and assayed for cell viability using different methods as previously described (25-28). Cerebral cortical mixed neuronal cells or hippocampal cells in culture were exposed to either NMDA or uncompensated oxidative stress (UOS) for 12 h by addition of either NMDA (25 μM, 50 μM, or 100 μM) concentration or by the addition of TNFα (10 ng/mL) and H2O2 (50 μM, 100 μM, or 200 μM). Cell viability and neuroprotection in the presence of ELV-N32, ELV-N34, 32:6, or 34:6 were assayed after 12 h.
Hoechst staining and unbiased image analysis: Cells were washed with 1× Dulbecco's Phosphate Buffered Saline (DPBS) containing no calcium or magnesium (GIBCO) and fixed for 10 mins using ice-cold 4% paraformaldehyde (PFA) followed by 15 mins incubation in 100% methanol. Cells were washed with 1× Phosphate Buffered Saline (PBS) pH 7.4 (GIBCO) and incubated in PBS containing 20 μM Hoechst 33258 (Molecular Probes) for 20 mins. Cells were then washed 3 times with 1× PBS and stored in 1× PBS at 4° C. until they were imaged for microscopy. […]

[2] = test system: cerebral cortical mixed neuronal cells; assay: Uncompensated oxidative stress (TNFα plus H2O2) in cerebral cortical mixed neuronal cultures; type: cell-based, rat; conditions: for UOS dose-dependent increase of apoptotic nuclei: 200 nM (FIG. 16B); for neuroprotection against uncompensated oxidative stress: 200 nM, 12 h TNFα 10 ng/mL and H2O2 (50, 100 or 200 μM)
Source text: as §1, §2, §3
Hoechst staining and unbiased image analysis: Cells were washed with 1× Dulbecco's Phosphate Buffered Saline (DPBS) containing no calcium or magnesium (GIBCO) and fixed for 10 mins using ice-cold 4% paraformaldehyde (PFA) followed by 15 mins incubation in 100% methanol. Cells were washed with 1× Phosphate Buffered Saline (PBS) pH 7.4 (GIBCO) and incubated in PBS containing 20 μM Hoechst 33258 (Molecular Probes) for 20 mins. Cells were then washed 3 times with 1× PBS and stored in 1× PBS at 4° C. until they were imaged for microscopy.
One 4×4 tile mosaic was acquired from the center of each well using a Zeiss 510 Meta laser confocal microscope and LSM 510 Meta software. Images were imported into image analysis software ImageJ (National Institutes of Health, Bethesda, Md.) and batch processed using custom macros. An Otsu auto threshold was applied to each image of Hoechst-stained nuclei, and the area of each detected object was recorded. Objects with areas <10 μm^2 were excluded from analysis. To estimate percentage non-pyknotic nuclei, a size cutoff value was chosen above which objects were assumed to be non-pyknotic. […]

SMILES | neuroprotection compared to OGD alone (Hoechst-positive nuclei, calcein-positive cell counting or MTT) [1] | UOS dose-dependent increase of apoptotic nuclei [2] | neuroprotection against uncompensated oxidative stress [2] | frequency distribution of pyknotic vs non-pyknotic nuclei (nuclear size peak) after OGD [1] | further results
CC/C=C\C/C=C\C/C=C\C/C=C\C/C=C\C/C=C\CCCCCCCCCCCCC(=O)O [32:6n3, (14Z,17Z,20Z,23Z,26Z,29Z)-dotriaconta-14,17,20,23,26,29-hexaenoic acid] |  |  |  |  | neuroprotection after OGD by VLC-PUFA precursor [1]: provide neuroprotection
CC/C=C\C/C=C\C/C=C\C/C=C\C/C=C\C/C=C\CCCCCCCCCCCCCCC(=O)O [34:6n3, (16Z,19Z,22Z,25Z,28Z,31Z)-tetratriaconta-16,19,22,25,28,31-hexaenoic acid] |  |  |  |  | neuroprotection after OGD by VLC-PUFA precursor ([1]; listed as 34:6): elicit neuroprotection
CC/C=C\C[C@H](O)\C=C/C=C/C=C/[C@H](O)C/C=C\C/C=C\CCCCCCCCCCCCC(=O)OC [ELV-N32-Me, methyl (14Z,17Z,20R,21E,23E,25Z,27S,29Z)-20,27-dihydroxydotriaconta-14,17,21,23,25,29-hexaenoate] | elicited neuroprotection | counteracted | evoked neuroprotection |  | 
CC/C=C\C[C@H](O)\C=C/C=C/C=C/[C@H](O)C/C=C\C/C=C\CCCCCCCCCCCCC(=O)[O-].[Na+] [ELV-N32-Na, sodium (14Z,17Z,20R,21E,23E,25Z,27S,29Z)-20,27-dihydroxydotriaconta-14,17,21,23,25,29-hexaenoate] | elicited neuroprotection | counteracted | evoked neuroprotection | positive rightward shift | neuroprotection against uncompensated oxidative stress ([2]; listed as ELV-N32 Na): neuroprotection elicited
CC/C=C\C[C@H](O)\C=C/C=C/C=C/[C@H](O)C/C=C\C/C=C\CCCCCCCCCCCCCCC(=O)OC [ELV-N34-Me, methyl (16Z,19Z,22R,23E,25E,27Z,29S,31Z)-22,29-dihydroxytetratriaconta-16,19,23,25,27,31-hexaenoate] | elicited neuroprotection |  |  | positive rightward shift | 
CC/C=C\C[C@H](O)\C=C/C=C/C=C/[C@H](O)C/C=C\C/C=C\CCCCCCCCCCCCCCC(=O)[O-].[Na+] [ELV-N34-Na, sodium (16Z,19Z,22R,23E,25E,27Z,29S,31Z)-22,29-dihydroxytetratriaconta-16,19,23,25,27,31-hexaenoate] | elicited neuroprotection |  | neuroprotection elicited |  | 
